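Each compound was tested at five concentrations against cells in 96-well plates for 48 hours. At the GI50, growth is halved. The concentration for full growth arrest is given as TGI.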
How the values were obtained:
Experiment in all cases: NCI-60 cell line screen, 48 h
HL-60(TB) leukemia = test system: HL-60(TB) leukemia
SF-539 CNS = test system: SF-539 CNS
RPMI-8226 leukemia = test system: RPMI-8226 leukemia
MOLT-4 leukemia = test system: MOLT-4 leukemia
HOP-62 NSCLC = test system: HOP-62 NSCLC
TK-10 renal = test system: TK-10 renal
MDA-MB-231 breast = test system: MDA-MB-231 breast
HS 578T breast = test system: HS 578T breast
MDA-MB-435 = test system: MDA-MB-435
BT-549 breast = test system: BT-549 breast

SMILES	TGI (HL-60(TB) leukemia) [µM]	TGI (SF-539 CNS) [µM]	TGI (RPMI-8226 leukemia) [µM]	TGI (MOLT-4 leukemia) [µM]	TGI (HOP-62 NSCLC) [µM]	TGI (TK-10 renal) [µM]	TGI (MDA-MB-231 breast) [µM]	TGI (HS 578T breast) [µM]	TGI (MDA-MB-435) [µM]	TGI (BT-549 breast) [µM]	GI50 (HL-60(TB) leukemia) [µM]	GI50 (MDA-MB-231 breast) [µM]	GI50 (HS 578T breast) [µM]	GI50 (TK-10 renal) [µM]	GI50 (RPMI-8226 leukemia) [µM]	GI50 (MOLT-4 leukemia) [µM]	GI50 (BT-549 breast) [µM]	GI50 (SF-539 CNS) [µM]	GI50 (MDA-MB-435) [µM]	GI50 (HOP-62 NSCLC) [µM]
O=c1c(-c2ccccc2)c[nH]c2cc([N+](=O)[O-])c(/C(Cl)=C/c3ccccc3)cc12	31.6	27.7	9.98	24	52															
C[Si](C)(C)C#C[I+]c1ccccc1	61.3	79.3		> 100	> 100	> 100														
O=C(O)CCCN1CCCCC1			> 100	> 100	> 100	> 100	> 100	> 100	> 100	> 100										
Cc1c2cc[n+](C)cc2c(C)c2c1[nH]c1ccc(O)cc12	> 87.9	75.2	> 100	58.3	35	> 100	> 100	5.7	> 100	71.1										
CN1CCN(c2ccc3nc(-c4ccc(OCCCN5C(=O)c6cccc7cccc(c67)C5=O)cc4)[nH]c3c2)CC1	7.41		7.75	5.05		> 71.2	2.76	4.6		6.13	3.13	1.41	2.11	8.54	2.58	2.06	2.66			
CC(=O)O[C@H]1C(=O)[C@]2(C)[C@@H](OC(=O)OCC(O)CO)C[C@H]3OC[C@@]3(OC(C)=O)[C@H]2[C@H](OC(=O)c2ccccc2)[C@]2(O)C[C@H](OC(=O)[C@H](O)[C@@H](NC(=O)c3ccccc3)c3ccccc3)C(C)=C1C2(C)C (some centres not stated)		< 0.01	< 0.01	31.3	13.7	70.8	17.2	< 0.01		22.9										
COc1cc(-c2ccc(-c3ccc(C(=N)N)s3)s2)cc(OC)c1OC	5.64	3.02	5.72	5	3.97	7.34			3.09		2.7			2.7	2.46	2.4		1.58	1.64	1.97
Cc1c2cc[n+](C)cc2c(COC2OC(CO)C(O)C2O)c2c3ccccc3n(C)c12 (configuration not stated)	> 100	> 100	> 100	> 100	> 74.2															
NC(=O)c1cc2ccccc2c(N=Nc2ccccc2)c1O			> 100	> 100	> 100	> 100	> 100	> 100	> 100	> 100										
O=C(CCN1CCCC1)Nc1ccc2c(NCCCCc3ccccc3)c3ccccc3nc2c1		2.84	0.837			2.86	2.43		2.95			1.15		1.4	0.258			1.44	1.56	
CCCCN(CCCC)CC(=O)c1ccc2cc(Cl)c3ccccc3c2c1	> 100	> 100	> 100	> 100	> 100	> 100	> 100	> 100	> 100	41.8										
COc1cccc2c1C(=O)c1c(O)c3c(c(O)c1C2=O)C[C@@](O)(C(C)=O)C[C@@H]3OC1CC(N)C(O)C(C)O1 (some centres not stated)												0.0534		0.144	0.0136		0.0482		0.0877	< 0.0127
CC(C)(C)CC(C)(C)Cc1ccc(OCCOCC[N+](C)(C)Cc2ccccc2)cc1	1.93	3.21			6.73	12.7	3.08	4.75	2.66		0.365	1.51	2.03	2.83				1.7	1.33	2.31
CCC1=C(C)C2=NC1=CC1=NC(=C(CC)/C1=C/O)C=C1N=C3C(=C1C)C(=O)C(C(=O)OC)C3=C1NC(=C2)C(C)C1CCC(=O)OC (configuration not stated)	> 100	> 100	> 100	> 100	> 100	> 100	> 100	> 100	> 100	> 100										
N#Cc1ccc(Nc2nc3nc[nH]c3c(=O)[nH]2)cc1	> 100	> 100	> 100	> 100	> 100	> 100	> 100	> 100	> 100	> 100										
Cc1cc(SCC(=O)c2ccc(Br)cc2)cc(C)[o+]1	33.8	44.5	52.3	56.2	> 100	87.9	98.1	> 100	51.3	98.4										

From PubChem BioAssay (NCI)
